Active and inactive are the calls of the source. The rule behind the calls is not given here.
What was measured:
[1] = target: Serum paraoxonase/arylesterase 1 (Homo sapiens) (UniProt P27169); experiment: Binding affinity to recombinant paraoxonase-1 (unknown origin) expressed in Escherichia coli
[2] = target: Serum paraoxonase/arylesterase 1 (Homo sapiens) (UniProt P27169); experiment: Binding affinity to recombinant paraoxonase-1 (unknown origin) expressed in Escherichia coli after 5 mins by Trp-fluorescence quenching method
[3] = target: Serum paraoxonase/arylesterase 1 (Homo sapiens) (UniProt P27169); experiment: Activation of recombinant paraoxonase-1 (unknown origin) expressed in Escherichia coli assessed as delaying of Cu2+-induced LDL oxidation time after 15 mins by UV ELISA

Sequence of Serum paraoxonase/arylesterase 1 (Homo sapiens) (P27169 whole entry): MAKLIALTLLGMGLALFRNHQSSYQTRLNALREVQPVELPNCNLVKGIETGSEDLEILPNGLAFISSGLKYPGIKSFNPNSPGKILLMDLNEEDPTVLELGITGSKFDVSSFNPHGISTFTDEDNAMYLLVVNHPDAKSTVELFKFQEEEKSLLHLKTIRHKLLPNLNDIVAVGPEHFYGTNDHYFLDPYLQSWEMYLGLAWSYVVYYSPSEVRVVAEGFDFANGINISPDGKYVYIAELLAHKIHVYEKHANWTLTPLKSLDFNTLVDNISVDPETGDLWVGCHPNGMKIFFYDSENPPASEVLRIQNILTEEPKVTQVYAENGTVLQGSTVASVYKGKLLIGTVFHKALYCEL

Compound	Ka [1] [×10⁵ /M]	KSV [2] [×10⁵ /M]	Activity [3]	TIME [3] [h]
COc1ccc([C@@H]2CC(=O)c3c(O)cc(O)cc3O2)cc1O	0.66	0.6	–	–
O=c1c(O)c(-c2ccc(O)cc2)oc2cc(O)cc(O)c12	1.43	1.22	–	–
O=c1cc(-c2ccc(O)c(O)c2)oc2cc(O)cc(O)c12	1.33	1.34	–	–
O=c1cc(-c2ccc(O)c(O)c2)oc2cc(O)ccc12	1.07	0.87	–	–
O=c1c(-c2ccc(O)cc2)coc2cc(O)cc(O)c12	0.86	0.64	–	–
O=c1c(-c2ccc(O)cc2)coc2cc(O)ccc12	1.13	0.58	–	–
O=c1c(O)c(-c2ccc(O)c(O)c2)oc2cc(O)cc(O)c12	1.28	1.25	Active	–
O=c1cc(-c2ccc(O)cc2)oc2cc(O)cc(O)c12	1.13	1.15	–	–
O=c1cc(-c2ccc(O)cc2O)oc2ccccc12	0.75	0.54	–	–
CC1(C)C=Cc2c(ccc3c2OC[C@@H](c2ccc(O)cc2O)C3)O1	2.4	1.93	–	1.33
Oc1cc(O)c2c(c1)OC(c1ccc(O)c(O)c1)C(O)C2 (stereo not given)	–	–	inactive	–
O=C1C[C@@H](c2ccc(O)cc2)Oc2cc(O)cc(O)c21	0.68	0.35	–	–

Source: ChEMBL document CHEMBL2385049, “The effects and mechanism of flavonoid-rePON1 interactions. Structure-activity relationship study” (Bioorg Med Chem, 2013)
